Test results reported in a melting point compilation (Tetko et al.; mined from patent text by program, amines drawn as free bases though some values may be those of a salt).

melting point [°C]	SMILES
127 to 129	Cc1cc(C(=O)N2Cc3cccn3Cc3ccccc32)ccc1C1=CCCCC1C(C)(C)C (stereo unspecified)
120 to 122	COc1ccc(C(=O)Cl)cc1OC(=O)c1ccccc1
> 200	Cc1ccc(-n2nc(C(C)(C)C)cc2NC(=O)Nc2ccc(-c3cnc4c(c3)NC(=O)CO4)c3ccccc23)cc1
183 to 184	Clc1cnn2c(-c3ccncc3)ccnc12
124 to 125	CCC12CCCN3CCC4(C(=C(C(=O)OC)C1)Nc1ccccc14)C32 (stereo unspecified)
241 to 245	O=C1CC(c2cccc(-n3cncn3)c2)=Nc2ccc(-c3ccc(F)cc3)cc2N1
113 to 115	Cc1ccc(S(=O)(=O)OCC2Cc3cccc(-c4cc(Cl)cc(Cl)c4)c3O2)cc1 (stereo unspecified)
198 to 200	CC(=O)Nc1ccc(S(=O)(=O)Nc2ccc(C(O)(C(F)(F)F)C(F)(F)F)cc2)cc1
201 to 202	Cc1cccc(C)c1NC(=O)NCC1(c2ccccc2)CCCC1
94 to 95	CC(C)(C)C(=O)C(=Cn1ccnc1)Oc1ccc(Cl)cc1
228	N#Cc1cc(=O)n(CCc2ccccc2)s1
142 to 146	CC1OC(n2cc(F)c(NC(=O)c3ccc(Cl)cc3)nc2=O)C(O)C1O (stereo unspecified)
38 to 39	CCCCNC(=O)C(O[Si](C)(C)C(C)(C)C)c1ccccc1Br (stereo unspecified)
125 to 130	CCOP(=O)(CCN1CCC(N(CCCN)S(=O)(=O)c2ccc(Nc3nccc(Nc4ccc(F)cc4)n3)cc2)CC1)OCC
168 to 171	Cc1cc(-c2n[nH]c(Cc3ccccc3)n2)sc1C(=O)NCc1ccccc1
163	CCn1cc(N(C)S(=O)(=O)c2cccs2)c2[nH]c(C3=NCCS3)cc21
94 to 95	COC(=O)COc1c(C)cc(SCc2ccc(-c3ccc(C(F)(F)F)cn3)cc2)c2c1CCO2
222 to 225	CC12CCC(C(=O)O)=CC1=CCC1C2CCC2(C)C(C(=O)c3ccccc3)CCC12 (stereo unspecified)
261 to 263	Cc1cccc(-c2ccc3c(C(N)=O)nn(-c4ccc(S(N)(=O)=O)cc4)c3c2)c1
168 to 173	CN(Cc1ccccc1)c1ccc(C(=O)O)nc1
130	Cc1ncc2cc(C(c3ccccc3)n3ccnc3)ccc2n1 (stereo unspecified)

melting point [°C]	SMILES
234 to 235	COc1ccc2c(c1)cc(-c1cc3cccnc3[nH]1)n2C
92	C#CCn1nnnc1SC(c1ccccc1)c1ccccc1
112 to 114	COc1cc(C(=O)N(C(C)C)C(C)C)ccc1OCCCCCOc1ccc(C=NN)cc1
208 to 209	CCCn1nnc(NC(=O)C2c3ccccc3Oc3ccccc32)n1
76 to 80	CC(=O)Cc1ccc(OCc2ccc(Cl)cc2)cc1
238 to 240	O=C(CCc1ccccc1[N+](=O)[O-])c1c(O)c2cccnc2n(-c2ccccc2)c1=O
128	CCC(C)N(C)C(=O)c1nc(-c2ccccc2)c2ccccc2n1 (stereo unspecified)
182 to 185	COc1nc(NC(=O)NS(=O)(=O)c2ccccc2C(=O)OC(C)C)nc(C(F)(F)F)n1
129 to 131	CCOC(=O)Cn1c(C(=O)NCc2nnc(C)n2-c2sc(CC)cc2C(=O)c2ccccc2)cc2ccccc21
153	Cc1nc2c(O)c(C(=O)[C@@H]3OC(C)(C)O[C@H]3c3ccccc3)ccc2n1C1CC1
174 to 176	CC1c2cc(F)ccc2CCN1C(=O)c1cc2ncc(Br)cn2n1 (stereo unspecified)
199 to 201	Cc1ccc(-c2ccc(/C=C/C(=O)Nc3ccc(CN(C)C4CCOCC4)cc3)s2)cc1
160 to 162	CC(C)N(CCNC(=O)c1csc(NC(=O)C2=CC=CC(=Nc3ccc[nH]3)C2)n1)C(C)C
70	CCOC(=O)C(C)Oc1ccc(Oc2nc3ccc(Cl)cc3cc2Cl)cc1 (stereo unspecified)
87.6 to 90.4	O=c1oc2c(c(O)c1C(c1ccccc1)C1CC1)CCCCCCCC2 (stereo unspecified)
> 300	O=c1[nH]c2ccccc2c2ccc3nc(Nc4c(Cl)cccc4Cl)[nH]c3c12
174 to 179	O=C1C(=Cc2ccc(Cl)cc2)Cc2ccccc21
117 to 119	CCCN(c1ccccc1)c1nc(C)nc(SC)c1[N+](=O)[O-]
153 to 155	O=C1OC(c2ccccc2)(c2ccccc2)C2CN(C3CCN(Cc4ccccc4)CC3)CCN12 (stereo unspecified)
67 to 70	ClCOc1ccc(-c2ccccc2)cc1
229 to 230	O=C(NNc1ccccc1)c1nc(Cl)c(Cl)[nH]1

More lines, now with the values behind:

SMILES	melting point [°C]
COc1ccc(C2(C#Cc3cc(N4CN=C(C)O4)cs3)CCC(=O)CC2)cc1OC1CCCC1	90 to 91
CCOC(=O)[C@@H]1[C@H](C)OC(=O)[C@@H]1NC(C)=O	165 to 167
CC(C)N(N)C(=O)N1CCCC1C(=O)OC(C)(C)C (stereo unspecified)	87 to 91
CON=C(C(=O)O)c1csc(NC(=O)CCl)n1	182 to 183
CCCCc1nc(SCCOC(C)=O)c(C(=O)OCC)[nH]1	68
CC1(C)CC(C)(C)CC(C)(NC=O)C1	104 to 106
O=C1CN=C(c2ccccc2)c2ccccc2N1CC(F)(F)F	130 to 131
CC(C)(C)c1ccc(Cn2ccc3ccc(-c4ccc(OC(F)(F)F)cc4)cc32)cc1	100 to 102
CCCCCCCCCCCCc1cc2cc(C(=O)OCC)ccc2[nH]1	77 to 79
O=C(NC1CN2CCC1CC2)c1ccc2[nH]ccc2c1 (stereo unspecified)	293 to 295
CCn1cc(C(=O)O)c(=O)c2cc(F)c(N3CCN(C(C)=O)CC3)cc21	300
CN1C(=O)C2(CCNCC2)c2ccccc21	146 to 151
CCOc1c(C(F)(F)F)cc([N+](=O)[O-])c2nc(C(F)(F)F)[nH]c12	144 to 146
CN=CN(C)c1ccccc1C#N	60 to 63
COc1ccc([N+](=O)[O-])cc1N1CCNCC1	84 to 87
O=C1CCCc2[nH]c3cc(F)ccc3c21	231 to 233
Cc1ccc(F)c(C2CC(=O)c3c(C)ccnc3C2)c1 (stereo unspecified)	92 to 94
C=C(C)CC(OS(C)(=O)=O)C(Cl)(Cl)Cl (stereo unspecified)	60 to 61
CC(C)c1sc(C(O)(C(F)(F)F)C(F)(F)F)nc1-c1ccc(S(C)(=O)=O)cc1	122 to 123
CCCCNS(=O)(=O)c1cc(C(=O)O)cc(Cl)c1Cl	160 to 165
O=C(C1CCN(c2ccncn2)C1)N1CCNCC1 (stereo unspecified)	129 to 131
CC(C)(C)OC(=O)N1CCN(c2ccc(C#N)c(F)c2)CC1	130 to 131
Cc1cccc(Cl)c1N1CCCN(C2CCC2)C1=S	89 to 91
CCc1nsc(C(=O)NC(C)C)c1C(=O)O	138 to 140
NS(=O)c1ncnc2c1ccn2C1CC(O)C(CO)O1 (stereo unspecified)	170 to 172
CCCCOc1c(CNC(=O)OC(C)(C)C)n(CC(C)C)c(=O)c2ccc(C(N)=S)cc12	189 to 190
CC(=O)NC(CCCCN)C(=O)C(N)C(CC1(C(=O)NC2CCC(C(=O)O)CC2)CCCC1)C(=O)O (stereo unspecified)	161 to 163
COc1ccc2[nH]cc(C=C3OC(=O)N(Cc4cc(C(F)(F)F)cc(C(F)(F)F)c4)C3=O)c2c1	147 to 149
Cc1ccc2c3c(ccc2n1)OCC(CN1CC=C(c2c[nH]c4ccccc24)CC1)O3 (stereo unspecified)	210
